In general, viability refers to a per cent measure of how many cells are alive, often set against a control.

Each structure is given as a SMILES string. Like-named read-outs stand apart in the source and are kept apart here.

The test system of one data set is CREC cells. To be noted: 18 to 24 hours.
The subject of data set [1] is mouse T cell lymphoma cells (EL4). The note with it: 18 to 24 hours. The protocol:
(§1) The cytotoxicity assay was performed by the conventional method [H. Lee et al., Regul. Pept. (2008), 147, 72-81]. The cells of Reference Example 1 were dispensed in a 96-well plate at a concentration of 1×10^4 cells/well for R182 and A2780 cells together with 0.1 mL of 10% FBS containing cell medium, and a concentration of 1×10^5 cells/well for […] the cells were cultured for 24 hours and then cultured for 12-16 hours in the absence of FBS.
(§2) The cultured cells were treated with various concentrations of calcium chloride (CaCl2, Sigma-Aldrich) at concentrations of 10, 50, 100, 200 and 300 mM and cultured for 18 to 24 hours to perform WST-1 assay (EZ-Cytox Cell Viability Assay kit, Daeillab Service, Seoul, Korea) for cell cytotoxicity assay.
(§3) WST-1 reagent of 10 μL was added to each well and incubated for 2 hours in a humidified incubator at 37° C. and 5% CO2 and the absorbance was measured at 450 nm using a microplate reader (Tecan, M, Switzerland) to calculate the percent growth rate.

Data set [2] deals with human ovarian cancer cell R182. On the procedure: as §1, §2, §3
In data set [3] the test system is human ovarian cancer cells A2780. The protocol:
as §1, §2, §3

Data set [4] has as its system human ovarian cancer cell A2780. As to the kind of experiment: cells. To be noted: for viability at 0.5 µM: A2780, 24 h.
Description: In the case of A2780 cells, 0.125 wt % agarose-7.5 wt % marine collagen-1 wt % alginate composite hydrogel support was prepared in the same manner as in Example 9, the cells were added to 96-well plate to induce the gelation at 4° C. for 5-10 minutes, and then cultured in the medium. In addition, the conventional two-dimensional cell culture was also performed as a control for three-dimensional cell culture.
(§5) In order to perform a sensitivity assay for an anticancer agent, EL4 and human ovarian cancer cell A2780 were cultured in an agarose-marine collagen-alginate composite hydrogel support in a two-dimensional and three-dimensional environment and an efficacy test for an anticancer agent was performed. EL4 cells cultured in two-dimensional culture conditions and EL4 cells cultured three-dimensionally in an agarose-marine collagen-alginate composite hydrogel support were treated with 5 μM doxorubicin (5927, cell signaling) and 100 μM resveratrol and the human ovarian cancer cell A2780 was treated with paclitaxel at a concentration of 0.5 μM for 24 hours, and then with WST-1 reagent, and absorbance was measured at 450 nm by a microplate reader to calculate percent growth rate.
In addition, 10 and 20 μM paclitaxel, and 30 and 50 μM curcumin were added to A2780 cells cultured in two-dimensional condition and A2780 cells cultured three-dimensionally for 7 days in agarose-marine collagen-alginate composite hydrogel supports, and the control group was treated with DMSO at the same concentration as the experimental group. The WST-1 reagent was then treated and the absorbance at 450 nm was measured by a microplate reader to calculate the percentage growth rate.
Data set [5] concerns human non-small cell lung cancer (NCI-H1703) cells. As to the kind of experiment: Anticancer drug susceptibility, WST-1 cell viability, 2D culture vs 3D culture on Fc 4%-Sc 50% fish collagen/PCL nanofiber support. To be noted: 3 μM doxorubicin, read-out: cell viability as compared with the control group. Format: cell-based. The protocol: (§4) First, an Fc 4%-Sc 50% fish collagen/PCL nanofiber support prepared in the same manner as in Example 1, was placed in a 96-well plate and NCI-H1703 and DU-145 cells were inoculated at a concentration of 5×10^4 cells/well. […] The results are expressed as mean±standard deviation (SD) for each analysis. Statistical analysis was performed using a two-tailed t-test and statistical significance was evaluated based on P<0.05.
In general terms: Formazan colour is commonly taken as a measure of viable cells.

A further data set deals with EL4 cells. As to the kind of experiment: cells. The note with it: Mus musculus.
Data set [6] relates to prostate cancer cell line DU-145. Put plainly: Anticancer drug susceptibility, WST-1 cell viability, 2D culture vs 3D culture on Fc 4%-Sc 50% fish collagen/PCL nanofiber support. Format: cell-based. To be noted: Homo sapiens, 3 μM paclitaxel, read-out: cell viability as compared with the control group. On the procedure: as §4
[7] abbreviates: EL4, read-out: cell viability compared to the control group.
[8] abbreviates: EL4, read-out: viability as compared with the control group.

Description for CREC cells: The cells of Reference Example 1 were dispensed in a 96-well plate at a concentration of 1×10^4 cells/well for R182 and A2780 cells together with 0.1 mL of 10% FBS containing cell medium, and a concentration of 1×10^5 cells/well for R182 and A2780 cells, and the cells were cultured for 24 hours and then cultured for 12-16 hours in the absence of FBS.
Description for EL4 cells: In the case of EL4 cells, 0.125 wt % agarose-10 wt % marine collagen-1 wt % alginate composite hydrogel support was prepared in the same manner as in Example 9, and cells were added, and the mixture liquid was added to a 1 mL syringe with 80 μL to induce the gelation at 4° C. for 5-10 minutes, and then cultured in a 48-well plate.
as §5

As for `[Ca+2].[Cl-].[Cl-]` [CaCl2, calcium chloride], the “dose-dependent cytotoxic effect (WST-1, percent growth rate)” value is recorded as 81.1% with CREC cells (10 mM); 36.8% with CREC cells (50 mM); 23.0% in the data set with CREC cells (100 mM); 9.9% in the data set with CREC cells (200 mM); 10.3% in the data set with CREC cells (300 mM); 101.3% in data set [1] (10 mM). Also, the “dose-dependent cytotoxic effect (WST-1, percent growth rate)” value in data set [1] (50 mM) turned out to be 59.2%; in data set [1] (100 mM) it was 25.4%; in data set [1] (200 mM), 11.2%; in data set [1] (300 mM), 9.7%; in data set [3] (50 mM) it was 74.9%; in data set [3] (100 mM) it was 65.9%. Also, the “dose-dependent cytotoxic effect (WST-1, percent growth rate)” value in data set [3] (150 mM) is on record as 41.5%; in data set [3] (200 mM), 37.9%; in data set [3] (250 mM), 39.5%; in data set [3] (300 mM), 43.7%. Besides, the “cytotoxic effect (WST-1, percent growth rate)” value in data set [2] (50 mM) was 34.1%; in data set [2] (100 mM), 26.4%; in data set [2] (150 mM) it was 21.1%; in data set [2] (200 mM) it was 21.4%; in data set [2] (250 mM) it was 24.9%; in data set [2] (300 mM), 25.6%.
On to `COc1cc(/C=C/C(=O)CC(=O)/C=C/c2ccc(O)c(OC)c2)ccc1O` [curcumin], for which the viability at 30 µM was 95% in data set [4] (A2780, read-out: cell viability, 30 μM curcumin, second pair of values, printed again as two-dimensional environment) and 42.5% in data set [4] (A2780, read-out: cell viability, 30 μM curcumin, two-dimensional environment). For the same compound, the viability at 50 µM in data set [4] (A2780, read-out: cell viability, 50 μM curcumin, second pair of values, printed again as two-dimensional environment) was 82.4%; in data set [4] (A2780, read-out: cell viability, 50 μM curcumin, two-dimensional environment), 36.7%.
As for `COc1cccc2c1C(=O)c1c(O)c3c(c(O)c1C2=O)C[C@@](O)(C(=O)CO)C[C@@H]3O[C@H]1C[C@H](N)[C@H](O)[C@H](C)O1` [doxorubicin], the viability at 3 µM stood at 94.5% in data set [5] (NCI-H1703, 24 h, 24 hours, three-dimensional environment (Fc 4%-Sc 50% support)); 55.1% in data set [5] (NCI-H1703, 24 h, 24 hours, two-dimensional environment); 95.7% in data set [5] (NCI-H1703, 48 h, 48 hours, three-dimensional environment (Fc 4%-Sc 50% support)); 40.8% in data set [5] (NCI-H1703, 48 h, 48 hours, two-dimensional environment). In addition, the viability at 5 µM was 71.4% in the data set with EL4 cells (setting [7]) and 58.6% in the data set with EL4 cells (setting [8]).
Take `CC(=O)O[C@H]1C(=O)[C@@]2(C)[C@H]([C@H](OC(=O)c3ccccc3)[C@]3(O)C[C@H](OC(=O)[C@H](O)[C@@H](NC(=O)c4ccccc4)c4ccccc4)C(C)=C1C3(C)C)[C@]1(OC(C)=O)CO[C@@H]1C[C@@H]2O` [paclitaxel]: the viability at 3 µM was 93.5% in data set [6] (DU-145, 24 h, 24 hours, three-dimensional environment (Fc 4%-Sc 50% support)); 50.2% in data set [6] (DU-145, 24 h, 24 hours, two-dimensional environment); 64.2% in data set [6] (DU-145, 48 h, 48 hours, three-dimensional environment (Fc 4%-Sc 50% support)); 14.6% in data set [6] (DU-145, 48 h, 48 hours, two-dimensional environment). The viability at 10 µM in data set [4] (A2780, 10 μM paclitaxel, two-dimensional environment) amounted to 12.3%; in data set [4] (A2780, 168 h, 10 μM paclitaxel, three-dimensional environment (cultured 7 days in hydrogel support)) it was 40.2%. In addition, the viability at 20 µM in data set [4] (A2780, 20 μM paclitaxel, two-dimensional environment) amounted to 6.4%; in data set [4] (A2780, 168 h, 20 μM paclitaxel, three-dimensional environment (cultured 7 days in hydrogel support)), 51.4%. In addition, the viability at 0.5 µM in data set [4] (read-out: cell viability, 0.5 μM paclitaxel, 24 hours, three-dimensional environment (hydrogel support)) was 94.2%; in data set [4] (read-out: viability as compared with the control group, 0.5 μM paclitaxel, 24 hours, two-dimensional environment), 60.9%.
Take `Oc1ccc(C=Cc2cc(O)cc(O)c2)cc1` [resveratrol]: the viability at 100 µM came to 93.5% in the data set on EL4 cells (setting [7]) and 50.2% in the data set on EL4 cells (setting [8]).

The values above are taken from US10227560B2, “Biomimetic support for three-dimensional cell culturing, method for manufacturing same, and use thereof” (PUSAN NATIONAL UNIVERSITY INDUSTRY-UNIVERSITY COOPERATION …, priority 2014, dated 2019).
